Reference: patent publication US4127687A, “Prevention of fouling of marine structures such as boat hulls” (Rohm and Haas Company, priority 1976, dated 1978)
Values after ≈ are worked out from the molar mass of the structure shown. Where two headings read alike, the source gives them in different places.

Key:
[1] = system: sea water marine organisms; assay: Effectiveness as sea water marine anti-foulant; format: in vivo; details: result in words
From the text: The results in anti-fouling paints when utilizing the 3-isothiazolones of the patents noted above, are not predictable from their effectiveness as general biocides, whether against fresh water algae, bacteria, fungi, insects, etc.
Of the compounds appearing hereinafter in the examples, a number are common to Table 1 appearing in columns 9-12 of the U.S. Pat. No. 3,573,488 patent. Among the compounds common to the latter patent and the present specification are the compounds identified in the patent as example numbers 3, 5-8, 13, 23, 24, 33, 36, 37, the n-octyl isomer of examples 38, 40, 75, 76, 79, 84, and 93-96.
In example B of the U.S. Pat. No. 3,573,448 patent (appearing in columns 22-24) involving the control of algae, bacteria, fungi, and slime in fresh water cooling towers, not one of the compounds, or in some cases its homologue or analog, was effective as a salt water marine anti-foulant. […]
In the following examples, two systems of testing the compounds and evaluating the same are utilized. One involves the utilization of a confined amount of the materials to be evaluated in a cylindrical container having an open end covered by a membrane permeable to a limited extent by the sea water and by the compound in the container. The other method involves making up an anti-fouling paint and testing the same. In a four month period, meaningful results are obtained, and for a full scale test, a six month period, bracketing the summer months, is preferred. The evaluations involving (1) field tests, (2) laboratory tests, and (3) paint panel tests, are as follows: […]

weed [2] = assay: Membrane Diffusion Raft Trials, weed control; format: in vivo, grass-like algal growth common in sea water; design: key: 0 = none, + = some, ++ = effective; details: membrane test, average 15 to 16 weeks of immersion
Method in brief: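 Field raft test in sea water: known quantity of compound in container sealed with membrane of known porosity, diffusing into surrounding water; panels at waterline (illuminated, aerated) and flats (poorly lit, deeper). Fouling settlement inspected over about 15-16 weeks average immersion; scored 0 none, + some, ++ effective.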

barnacle = assay: Membrane Diffusion Raft Trials, barnacle control; format: in vivo, barnacles; design: key: 0 = none, + = some, ++ = effective barnacle control; details: membrane test, average 15 to 16 weeks of immersion
Method in brief: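 Test compound held in a plastic container sealed by a porous membrane, diffusing into surrounding seawater on raft panels alongside standard poisons and a non-toxic control membrane. Settlement timed and quantified by regular inspection; scored 0 (none), + (some) or ++ (effective), averaging 15 to 16 weeks' immersion.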

[3] = Amount of toxicant remaining in the test container after membrane diffusion raft tests; format: physicochemical; design: key: 0: empty or trace; +: some; + +: ample; details: after completion of membrane diffusion raft tests
Method in brief: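 Known amount of compound held in a cylindrical container sealed with a membrane of known porosity, fixed to a raft panel so toxicant diffuses into the surrounding water. Each panel carries 35 test compounds, 4 standard poisons and 1 non-toxic membrane control. After the trial, container contents inspected visually for remaining toxicant (0 = empty or trace).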

Enteromorpha spores = assay: Laboratory toxicity test (Lab Bioassay) with Enteromorpha spores; format: in vivo; details: using Enteromorpha spores
From the text: Standard laboratory toxicity tests use Enteromorpha spores (zoospores or gametes) but Ectocarpus spores and barnacle nauplii may also be used. During the spore tests additional information on the control of bacterial and diatom slimes becomes available since these organisms are unavoidably introduced with the spore inoculum.
More detailed laboratory toxicity tests on promising compounds determine LD50 values as percentage saturated solution.
^c Using Enteromorpha spores.

[4] = Water solubility by UV spectrophotometric method; format: physicochemical; details: water
Method in brief: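 Molar absorptivity determined from UV absorbance of a known-concentration aqueous solution at λmax (10 cm cell). Saturated solution prepared by stirring excess compound in deionized water ~72 hrs, filtered, diluted to mid-scale absorbance; solubility calculated from absorbance using that absorptivity.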

weed [5] = assay: Paint panel / plaque tests against weed (Table 2); format: in vivo, grass-like algal growth common in sea water; design: key: high performance; medium performance; low performance; poor or unacceptable performance; details: April to November, 1975
From the text: (3) PAINT FORMULATION AND TEST PANEL OR PLAQUE TESTS
In order to evaluate the compound under practical conditions, weighed quantities of promising compounds are ground in standard volumes of a selected range of paint media and brushed out on plaques for marine immersion.
The anti-fouling paint formulations used is exemplified by the following: […]
The most preferred specific compounds were utilized in paints including vinyl chloride-vinyl acetate copolymers, chlorinated rubber, acrylic emulsions, and conventional paints with or without rosin to contain 20% by weight of biocide in the wet film and in some cases (Example 144 and Example 145) with concentrations of 5, 10, and 15% based on the wet film. Each of the compounds is also described in the membrane tests noted above. The paints were applied at normal thicknesses to plaques or panels of 10 centimeters by 10 centimeters which were immersed in various positions as described for the raft noted above. The compounds and results, as against weed, in the season April to November, 1975, are as follows: […]

[6] = saturated solution, Table 1, read-out: Solubility by UV method

SMILES | effectiveness as anti-foulant in sea water marine environments [1] | Weed Control (weed [2]) | Barnacle Control (barnacle) | Contents at the end of test (amount of toxicants remaining in the test container) [3] | Lab Bioassay LD50 (Enteromorpha spores) | solubility [4, 6] | further results
Cn1sc(Cl)cc1=O [5-chloro-2-methyl-3-isothiazolone, reference compound] | ineffective as anti-foulants | – | – | – | – | – | –
CCCCn1sccc1=O [Example 1, 2-n-butyl-3-isothiazolone] | ineffective as anti-foulants | 0 | 0 | 0 | – | – | –
CCCCCCCCCCn1sc(Cl)c(Cl)c1=O [Example 63] | – | + + | 0 | + + | 0.03 percentage saturated solution | 1.4 µg/mL (≈ 4.51 µM) | Effectiveness in paint CONV (conventional anti-fouling formulation) (weed [5]): l; Effectiveness in paint CR (chlorinated rubber) (weed [5]): p; Effectiveness in paint CR/R (chlorinated rubber/rosin) (weed [5]): p; Effectiveness in paint EM (acrylic emulsion) (weed [5]): m; Effectiveness in paint V (polyvinyl chloride-acetate) (weed [5]): m; Effectiveness in paint V/R (vinyl/rosin) (weed [5]): m
Cn1scc(Cl)c1=O [4-chloro-2-methyl-3-isothiazolone, reference compound] | not active for controlling sea water marine organisms | – | – | – | – | – | –
Cc1c(Cl)cccc1-n1sc(Cl)c(Cl)c1=O [Example 78] | – | + + | 0 | + | 0.08 percentage saturated solution | 3.7 µg/mL (≈ 12.6 µM) | –
CCCCCCn1sccc1=O [Example 2, 2-n-hexyl-3-isothiazolone] | not active for controlling sea water marine organisms | 0 | 0 | 0 | – | 5100 µg/mL (≈ 27500 µM) | effectiveness as anti-foulant in sea water marine environments ([1]; listed as hexyl homologue of 2-n-butyl-3-isothiazolone): ineffective as anti-foulants
O=c1c(Br)c(Cl)sn1Cc1ccc(Cl)cc1 [Example 91] | – | + + | 0 | + | 0.02 percentage saturated solution | 3.3 µg/mL (≈ 9.73 µM) | –
O=c1c(Br)csn1C1CCCCC1 [Example 51] | – | + + | + | + | 0.01 percentage saturated solution | 143 µg/mL (≈ 545 µM) | –
CC(C)(C)CC(C)(C)n1sccc1=O [Example 4, 2-t-octyl-3-isothiazolone] | not active for controlling sea water marine organisms | 0 | 0 | 0 | – | 410 µg/mL (≈ 1920 µM) | –
O=c1cc(Cl)sn1-c1ccc(Cl)cc1 [Example 34] | – | + + | + + | + + | 0.025 percentage saturated solution | 41 µg/mL (≈ 167 µM) | –
O=c1c(Cl)c(Cl)sn1C1CCCCC1 [Example 67] | – | + + | + + | + | 0.3 percentage saturated solution | – | solubility [4]: 48 µg/mL (≈ 190 µM)
O=c1cc(Cl)sn1Cc1ccccc1 [5-chloro-2-benzyl-3-isothiazolone] | effective in both environments | – | – | – | – | – | –
CCCCCCCCCCCCn1sccc1=O [Example 5] | not active for controlling sea water marine organisms | 0 | 0 | + | – | – | –
CCCCCCCCn1scc(Cl)c1=O [Example 43] | – | + + | 0 | + | 0.0003 percentage saturated solution | 60 µg/mL (≈ 242 µM) | Effectiveness in paint V (polyvinyl chloride-acetate) (weed [5]): h; Effectiveness in paint V/R (vinyl/rosin) (weed [5]): h
CCCCCCn1sc(Cl)c(Cl)c1=O [Example 56] | control or inhibit the growth of one or more sea water marine organisms | + + | + + | 0 | – | 115 µg/mL (≈ 452 µM) | –
COc1cc(Cl)ccc1-n1sc(Cl)cc1=O [Example 41] | – | + + | + | + + | 0.03 percentage saturated solution | 55 µg/mL (≈ 199 µM) | –
CCCCCCCCCCn1sccc1=O [2-n-decyl-3-isothiazolone, reference compound] | ineffective as anti-foulants | – | – | – | – | – | –
O=c1c(Cl)c(Cl)sn1Cc1ccc(Cl)cc1 [Example 72] | – | + + | + | + + | 0.015 percentage saturated solution | 11 µg/mL (≈ 37.3 µM) | –
CCCCCCCCn1sccc1=O [Example 3, 2-n-octyl-3-isothiazolone] | not active for controlling sea water marine organisms | 0 | 0 | 0 | – | – | solubility [4]: 481 µg/mL (≈ 2250 µM); effectiveness as anti-foulant in sea water marine environments ([1]; listed as octyl homologue of 2-n-butyl-3-isothiazolone): ineffective as anti-foulants; effectiveness as anti-foulant in sea water marine environments ([1]; listed as octyl homologue of 2-n-decyl-3-isothiazolone): not active for controlling sea water marine organisms
CCCCn1sc(Cl)c(Cl)c1=O [Example 55] | control or inhibit the growth of one or more sea water marine organisms | + + | + | + | – | 1000 µg/mL (≈ 4420 µM) | –
O=c1c(Br)c(Cl)sn1-c1ccc(Cl)cc1 [Example 93] | – | + + | + + | + + | 0.012 percentage saturated solution | 1.72 µg/mL (≈ 5.29 µM) | –
Cc1c(Cl)sn(-c2cccc(Cl)c2)c1=O [Example 113] | – | + + | + | + + | 0.013 percentage saturated solution | 13 µg/mL (≈ 50 µM) | –
O=c1ccsn1Cc1ccccc1 [2-benzyl-3-isothiazolone, reference compound] | not active for controlling sea water marine organisms | – | – | – | – | – | effectiveness as anti-foulant in sea water marine environments ([1]; listed as benzyl analogue of 2-n-butyl-3-isothiazolone): ineffective as anti-foulants
O=c1c(Br)csn1Cc1ccc(Cl)cc1 [Example 53] | – | + + | + | + + | 0.1 percentage saturated solution | 18 µg/mL (≈ 59.1 µM) | –
